Reference: ChEMBL document CHEMBL5236659, “Design, synthesis and antitumor activity of novel thiophene- triazine derivatives bearing arylurea unit as potent PI3K/mTOR inhibitorss” (Bioorg Med Chem, 2023)
Active and inactive are the calls of the source. No cut-off for these calls is given here.

Columns and labels:
[1] = molecular target: T1, Phosphatidylinositol 4,5-bisphosphate 3-kinase catalytic subunit alpha isoform (Homo sapiens, UniProt P42336); assay: Inhibition of PI3Kalpha (unknown origin) at 1 uM by kinase-glo luminescent assay relative to control
[2] = molecular target: T2, Serine/threonine-protein kinase mTOR (Homo sapiens, UniProt P42345); assay: Inhibition of mTOR (unknown origin) at 1 uM by kinase-glo luminescent assay relative to control
[3] = molecular target: T1, Phosphatidylinositol 4,5-bisphosphate 3-kinase catalytic subunit alpha isoform; assay: Inhibition of PI3Kalpha (unknown origin) by kinase-glo luminescent assay
[4] = molecular target: T2, Serine/threonine-protein kinase mTOR; assay: Inhibition of mTOR (unknown origin) by kinase-glo luminescent assay
Homo sapiens = species: Homo sapiens; assay: Selectivity index, ratio of IC50 for inhibition of PI3Kalpha (unknown origin) to IC50 for inhibition of mTOR (unknown origin) by kinase glo luminescent assay
MCF7 = assay: Antiproliferative activity against human MCF7 cells assessed as inhibition of cell growth incubated for 72 hrs by MTT assay; type: functional, cell-based; details: MCF7, 72 h
[5] = Antiproliferative activity against human OVCAR-2 cells assessed as inhibition of cell growth incubated for 72 hrs by MTT assay; type: functional, cell-based; details: OVCAR-2, 72 h
[6] = Antiproliferative activity against human U-87 MG cells assessed as inhibition of cell growth incubated for 72 hrs by MTT assay; type: functional, cell-based, U-87MG ATCC
[7] = Selectivity ratio of IC50 for antiproliferative activity against human MCF7 cells to IC50 for antiproliferative activity against human U-87 MG cells; type: functional
A549 = assay: Antiproliferative activity against human A549 cells assessed as inhibition of cell growth incubated for 72 hrs by MTT assay; type: functional, cell-based; details: A549, 72 h
NCI-H460 = assay: Antiproliferative activity against human NCI-H460 cells assessed as inhibition of cell growth incubated for 72 hrs by MTT assay; type: functional, cell-based; details: NCI-H460, 72 h
NCI-H1975 = assay: Antiproliferative activity against human NCI-H1975 cells overexpressing EGFR L858R/T790M mutant assessed as inhibition of cell growth incubated for 72 hrs by MTT assay; type: functional, cell-based; details: NCI-H1975, 72 h
[8] = Selectivity ratio of IC50 for antiproliferative activity against human A549 cells to IC50 for antiproliferative activity against human NCI-H1975 cells overexpressing EGFR L858R/T790M mutant; type: functional
HeLa [9] = assay: Antiproliferative activity against human HeLa cells assessed as inhibition of cell growth incubated for 72 hrs by MTT assay; type: functional, cell-based
HeLa [10] = assay: Antiproliferative activity against paclitaxel-resistant human HeLa cells assessed as inhibition of cell growth incubated for 72 hrs by MTT assay; type: functional, cell-based
[11] = Selectivity ratio of IC50 for antiproliferative activity against human HeLa cells to IC50 for antiproliferative activity against paclitaxel-resistant human HeLa cells; type: functional
[12] = molecular target: Vascular endothelial growth factor receptor 2 (Homo sapiens) (UniProt P35968); assay: Inhibition of KDR (unknown origin) at 1 uM by kinase-glo luminescent assay relative to control
[13] = molecular target: RAC-alpha serine/threonine-protein kinase (Homo sapiens) (UniProt P31749); assay: Inhibition of AKT1 (unknown origin) at 1 uM by kinase-glo luminescent assay relative to control
[14] = molecular target: Epidermal growth factor receptor (Homo sapiens) (UniProt P00533); assay: Inhibition of EGFR (unknown origin) at 1 uM by kinase-glo luminescent assay relative to control
NCI-H2228 = assay: Antiproliferative activity against human NCI-H2228 cells assessed as inhibition of cell growth incubated for 72 hrs by MTT assay; type: functional, cell-based

T1 sequence (P42336 whole entry, canonical isoform): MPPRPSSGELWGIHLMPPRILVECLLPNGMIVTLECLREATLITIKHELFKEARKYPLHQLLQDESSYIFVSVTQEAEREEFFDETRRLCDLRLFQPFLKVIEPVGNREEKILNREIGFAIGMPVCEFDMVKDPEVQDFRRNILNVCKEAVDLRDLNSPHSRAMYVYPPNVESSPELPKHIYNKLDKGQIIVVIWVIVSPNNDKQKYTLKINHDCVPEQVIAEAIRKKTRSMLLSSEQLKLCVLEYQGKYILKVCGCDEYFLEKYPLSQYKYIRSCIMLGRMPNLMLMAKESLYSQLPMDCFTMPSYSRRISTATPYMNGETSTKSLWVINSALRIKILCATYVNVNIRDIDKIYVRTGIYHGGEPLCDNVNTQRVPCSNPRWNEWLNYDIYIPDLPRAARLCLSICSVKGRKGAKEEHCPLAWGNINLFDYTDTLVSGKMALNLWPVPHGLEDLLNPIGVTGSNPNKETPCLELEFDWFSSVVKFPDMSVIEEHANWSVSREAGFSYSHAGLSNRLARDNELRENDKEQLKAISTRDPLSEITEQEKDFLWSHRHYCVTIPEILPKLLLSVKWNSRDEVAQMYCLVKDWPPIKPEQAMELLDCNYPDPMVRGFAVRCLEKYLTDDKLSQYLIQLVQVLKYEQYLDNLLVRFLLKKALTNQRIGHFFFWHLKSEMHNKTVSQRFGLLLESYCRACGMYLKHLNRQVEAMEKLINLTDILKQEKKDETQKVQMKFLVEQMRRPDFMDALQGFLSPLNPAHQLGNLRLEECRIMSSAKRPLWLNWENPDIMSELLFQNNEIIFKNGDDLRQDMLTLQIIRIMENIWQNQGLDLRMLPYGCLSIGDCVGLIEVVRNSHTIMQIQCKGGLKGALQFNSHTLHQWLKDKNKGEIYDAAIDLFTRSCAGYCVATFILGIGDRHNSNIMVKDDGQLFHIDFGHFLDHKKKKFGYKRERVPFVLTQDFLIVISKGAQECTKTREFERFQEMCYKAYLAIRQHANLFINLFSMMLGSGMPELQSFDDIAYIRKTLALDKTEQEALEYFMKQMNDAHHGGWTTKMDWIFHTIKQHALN
Sequence of Epidermal growth factor receptor (Homo sapiens) (P00533 whole entry): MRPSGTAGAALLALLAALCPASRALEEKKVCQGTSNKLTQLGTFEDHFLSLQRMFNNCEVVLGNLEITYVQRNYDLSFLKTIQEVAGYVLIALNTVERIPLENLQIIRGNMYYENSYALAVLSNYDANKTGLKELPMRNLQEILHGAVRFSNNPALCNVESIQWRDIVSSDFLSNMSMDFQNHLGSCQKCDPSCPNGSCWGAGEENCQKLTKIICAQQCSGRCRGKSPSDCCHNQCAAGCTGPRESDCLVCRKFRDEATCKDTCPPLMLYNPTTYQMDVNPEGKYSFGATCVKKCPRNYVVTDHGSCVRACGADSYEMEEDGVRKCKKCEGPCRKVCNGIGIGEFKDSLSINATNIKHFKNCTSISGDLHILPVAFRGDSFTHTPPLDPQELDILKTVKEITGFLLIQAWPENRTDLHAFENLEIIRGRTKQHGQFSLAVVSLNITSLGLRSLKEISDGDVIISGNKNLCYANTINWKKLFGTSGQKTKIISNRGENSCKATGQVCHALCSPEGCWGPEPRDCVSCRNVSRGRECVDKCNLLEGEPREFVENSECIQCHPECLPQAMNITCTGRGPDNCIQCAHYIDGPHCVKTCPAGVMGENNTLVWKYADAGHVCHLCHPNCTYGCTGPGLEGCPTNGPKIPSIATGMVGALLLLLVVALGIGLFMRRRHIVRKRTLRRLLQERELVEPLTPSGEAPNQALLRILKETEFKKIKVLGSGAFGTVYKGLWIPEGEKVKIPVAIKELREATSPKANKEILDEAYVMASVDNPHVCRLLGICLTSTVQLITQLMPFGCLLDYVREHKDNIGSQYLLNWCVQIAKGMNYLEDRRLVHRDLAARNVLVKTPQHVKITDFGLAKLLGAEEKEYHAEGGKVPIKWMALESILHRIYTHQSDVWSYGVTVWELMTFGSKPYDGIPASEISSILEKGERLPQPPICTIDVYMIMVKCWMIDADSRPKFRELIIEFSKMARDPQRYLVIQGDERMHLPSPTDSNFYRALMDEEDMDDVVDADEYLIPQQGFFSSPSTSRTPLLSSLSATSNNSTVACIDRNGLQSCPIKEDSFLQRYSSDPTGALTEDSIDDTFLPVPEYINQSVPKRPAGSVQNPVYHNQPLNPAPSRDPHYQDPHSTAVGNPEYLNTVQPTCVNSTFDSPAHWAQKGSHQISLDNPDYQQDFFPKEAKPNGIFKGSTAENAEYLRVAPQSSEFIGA
Sequence of Vascular endothelial growth factor receptor 2 (Homo sapiens) (P35968 whole entry): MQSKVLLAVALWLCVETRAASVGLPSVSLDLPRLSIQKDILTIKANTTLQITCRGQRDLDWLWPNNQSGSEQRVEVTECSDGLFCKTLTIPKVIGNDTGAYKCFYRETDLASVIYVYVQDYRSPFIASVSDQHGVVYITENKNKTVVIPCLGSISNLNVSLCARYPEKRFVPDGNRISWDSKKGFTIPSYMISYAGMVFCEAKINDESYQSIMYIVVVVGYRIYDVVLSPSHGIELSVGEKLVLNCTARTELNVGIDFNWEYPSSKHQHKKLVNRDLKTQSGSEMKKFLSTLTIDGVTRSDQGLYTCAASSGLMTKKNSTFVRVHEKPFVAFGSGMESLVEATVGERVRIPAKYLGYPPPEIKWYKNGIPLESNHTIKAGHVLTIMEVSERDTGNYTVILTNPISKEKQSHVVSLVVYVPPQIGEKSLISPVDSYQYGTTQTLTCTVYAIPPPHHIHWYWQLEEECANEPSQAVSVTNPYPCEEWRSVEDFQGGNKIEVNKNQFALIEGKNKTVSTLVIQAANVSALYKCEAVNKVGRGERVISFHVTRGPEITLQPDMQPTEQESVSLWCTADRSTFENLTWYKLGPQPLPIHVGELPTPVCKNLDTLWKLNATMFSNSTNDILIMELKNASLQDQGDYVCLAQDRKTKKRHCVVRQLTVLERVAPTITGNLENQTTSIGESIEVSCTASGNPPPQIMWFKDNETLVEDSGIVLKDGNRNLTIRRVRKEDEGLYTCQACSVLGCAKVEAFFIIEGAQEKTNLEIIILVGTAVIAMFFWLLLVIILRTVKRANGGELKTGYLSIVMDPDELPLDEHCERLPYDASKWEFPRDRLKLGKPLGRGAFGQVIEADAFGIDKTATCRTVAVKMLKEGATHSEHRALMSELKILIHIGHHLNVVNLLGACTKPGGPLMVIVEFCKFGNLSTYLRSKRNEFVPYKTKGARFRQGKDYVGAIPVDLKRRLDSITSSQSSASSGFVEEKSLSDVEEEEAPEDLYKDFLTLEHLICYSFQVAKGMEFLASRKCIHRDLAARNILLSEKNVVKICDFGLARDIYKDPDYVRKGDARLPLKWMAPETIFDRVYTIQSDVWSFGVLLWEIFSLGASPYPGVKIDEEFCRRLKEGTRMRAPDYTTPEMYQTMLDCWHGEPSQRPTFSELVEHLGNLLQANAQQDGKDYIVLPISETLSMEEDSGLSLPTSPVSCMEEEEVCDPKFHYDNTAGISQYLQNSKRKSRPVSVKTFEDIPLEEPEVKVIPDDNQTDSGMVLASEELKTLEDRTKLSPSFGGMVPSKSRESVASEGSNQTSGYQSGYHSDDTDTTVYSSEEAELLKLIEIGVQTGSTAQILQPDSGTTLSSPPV
Sequence of RAC-alpha serine/threonine-protein kinase (Homo sapiens) (P31749 whole entry): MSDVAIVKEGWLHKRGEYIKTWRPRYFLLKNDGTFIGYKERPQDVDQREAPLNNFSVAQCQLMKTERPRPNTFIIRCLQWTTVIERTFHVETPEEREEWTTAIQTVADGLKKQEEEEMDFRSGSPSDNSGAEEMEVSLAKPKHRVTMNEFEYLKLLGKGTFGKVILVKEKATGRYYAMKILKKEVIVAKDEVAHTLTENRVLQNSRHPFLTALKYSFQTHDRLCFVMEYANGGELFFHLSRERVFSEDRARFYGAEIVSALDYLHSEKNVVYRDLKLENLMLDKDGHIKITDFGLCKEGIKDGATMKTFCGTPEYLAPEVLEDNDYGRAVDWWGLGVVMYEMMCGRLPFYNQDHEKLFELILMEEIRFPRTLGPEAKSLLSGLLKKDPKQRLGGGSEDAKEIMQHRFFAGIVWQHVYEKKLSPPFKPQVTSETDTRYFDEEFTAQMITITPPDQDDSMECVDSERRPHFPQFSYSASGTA

Row | Structure (SMILES) | inhibition [1] [%] | inhibition [2] [%] | IC50 [3] [µM] | IC50 (MCF7) [µM] | IC50 [5] [µM] | IC50 [6] [µM] | Ratio IC50 [7] | IC50 (A549) [µM] | IC50 (NCI-H460) [µM] | IC50 (NCI-H1975) [µM] | Ratio IC50 [8] | IC50 (HeLa [9]) [µM] | IC50 (HeLa [10]) [µM] | Ratio IC50 [11] | other results
1 | Cn1nccc1NC(=O)Nc1ccc(-c2nc(-c3ccc(CN4CCN(S(C)(=O)=O)CC4)s3)nc(N3CCOCC3)n2)cc1 | 47.5 | 72.7 | 1.33 | 0.42 | 15.9 | 8.61 | 0.048 | 16.4 | 10.6 | 9.87 | 1.67 | 45.1 | 31.7 | 1.43 | IC50 [4]: 0.571 µM; Ratio IC50 (Homo sapiens): 2.33
2 | CS(=O)(=O)N1CCN(Cc2ccc(-c3nc(-c4ccc(NC(=O)Nc5nc[nH]n5)cc4)nc(N4CCOCC4)n3)s2)CC1 | 94.5 | 97.3 | – | 13 | 12.3 | 18.2 | 0.71 | 13.2 | > 100 | 22.5 | 0.59 | 25.5 | 21.4 | 1.19 | –
3 | CS(=O)(=O)N1CCN(Cc2ccc(-c3nc(-c4ccc(NC(=O)Nn5cnnc5)cc4)nc(N4CCOCC4)n3)s2)CC1 | 46.8 | – | 1.74 | 1.82 | 26.9 | > 100 | – | 50.4 | > 100 | > 100 | – | 42.8 | > 100 | – | –
4 | CS(=O)(=O)N1CCN(Cc2ccc(-c3nc(-c4ccc(NC(=O)Nc5ccc6[nH]ncc6c5)cc4)nc(N4CCOCC4)n3)s2)CC1 | 93 | 96.4 | – | 0.11 | 12.6 | 15.1 | 0.007 | 14.2 | 20.5 | 31.2 | 0.46 | 2.14 | 10.5 | 0.2 | –
5 | CS(=O)(=O)N1CCN(Cc2ccc(-c3nc(-c4ccc(NC(=O)Nc5ccncn5)cc4)nc(N4CCOCC4)n3)s2)CC1 | 43.4 | 86.8 | – | 30.7 | > 100 | 25.2 | 1.21 | 44.9 | > 100 | 5.53 | 8.12 | 28.2 | > 100 | – | –
6 | CS(=O)(=O)N1CCN(Cc2ccc(-c3nc(-c4ccc(NC(=O)NC5CN6CCC5CC6)cc4)nc(N4CCOCC4)n3)s2)CC1 (centres undefined) | 9 | 17.1 | 8.97 | 7.46 | 22.9 | 21.5 | 0.35 | 2.38 | > 100 | 40.5 | 0.059 | 17.1 | 17.2 | 0.99 | IC50 [4]: 7.96 µM; Ratio IC50 (Homo sapiens): 1.13
7 | CS(=O)(=O)N1CCN(Cc2cc3nc(-c4cccc5[nH]ncc45)nc(N4CCOCC4)c3s2)CC1 [PICTILISIB] | 97.8 | 90.6 | – | 1.2 | 1.25 | 3.13 | – | 1.03 | 2.68 | 2.42 | – | 3.15 | 2.97 | – | inhibition [12]: inactive; inhibition [13]: inactive; inhibition [14]: inactive; IC50 (NCI-H2228; Homo sapiens, NCI-H2228, 72 h, read-out: IC50): 1.07 µM
8 | CS(=O)(=O)N1CCN(Cc2ccc(-c3nc(-c4ccc(NC(=O)NN5CCOCC5)cc4)nc(N4CCOCC4)n3)s2)CC1 | – | – | – | 9.11 | 15.9 | 26.9 | 0.34 | 20.5 | > 100 | 0.11 | 186.72 | 31.2 | 22.6 | 1.38 | –
9 | Cn1ccnc1NC(=O)Nc1ccc(-c2nc(-c3ccc(CN4CCN(S(C)(=O)=O)CC4)s3)nc(N3CCOCC3)n2)cc1 | – | – | – | > 100 | – | > 100 | – | 53.9 | > 100 | 7.86 | – | 13.8 | > 100 | – | –
10 | CS(=O)(=O)N1CCN(Cc2ccc(-c3nc(-c4ccc(NC(=O)Nc5ncc[nH]5)cc4)nc(N4CCOCC4)n3)s2)CC1 | 47.7 | – | 1.79 | 20.1 | 22.6 | > 100 | – | 48.9 | 14.3 | > 100 | – | 7.58 | 38.5 | – | IC50 (NCI-H2228; nci-h2228): Not Active
11 | CS(=O)(=O)N1CCN(Cc2ccc(-c3nc(-c4ccc(NC(=O)Nc5nn[nH]n5)cc4)nc(N4CCOCC4)n3)s2)CC1 | – | – | – | 15.2 | > 100 | > 100 | – | 2.82 | > 100 | > 100 | – | 48.5 | > 100 | – | –
12 | CS(=O)(=O)N1CCN(Cc2ccc(-c3nc(-c4ccc(NC(=O)Nc5cncnc5)cc4)nc(N4CCOCC4)n3)s2)CC1 | – | – | – | 7.61 | 20.1 | 14.9 | 0.51 | 10.8 | > 100 | 6.78 | 1.59 | 15 | 28 | 0.54 | –
13 | CS(=O)(=O)N1CCN(Cc2ccc(-c3nc(-c4ccc(NC(=O)Nc5ccccn5)cc4)nc(N4CCOCC4)n3)s2)CC1 | 16.1 | – | 3 | 3.34 | 3.52 | 10.5 | – | 10.1 | 7.57 | 0.076 | – | 6.01 | 9.27 | – | –
14 | CS(=O)(=O)N1CCN(Cc2ccc(-c3nc(-c4ccc(NC(=O)Nc5ncccn5)cc4)nc(N4CCOCC4)n3)s2)CC1 | 91.3 | 93 | – | 12.5 | > 100 | > 100 | – | 13.1 | 17.9 | 12.7 | 1.03 | 15.2 | 12.6 | 1.21 | –
